The test system of series [1] is H9. Kind of series: Anti-HIV activity was evaluated for the concentration that inhibits viral replication by 50%. The conditions noted are these: Homo sapiens. Format: functional, cell-based.
For series [2], the system named is H9. Put plainly: Inhibitory activity against gorwth of uninfected H9 cell growth by 50%. As to conditions: Homo sapiens. Format: functional, cell-based.
Series [3] in a line: Therapeutic index is the ratio of IC50 of compound to that of EC50. The conditions noted are these: read-out: Therapeutic index.

Some results are limits rather than exact numbers.

`COc1cc(=O)oc2c3c(ccc12)OC(C)(C)[C@H](OC(=O)C12CCC(C)(C(=O)O1)C2(C)C)[C@@H]3OC(=O)C12CCC(C)(C(=O)O1)C2(C)C` (stereo partly specified) displayed an EC50 in the series with H9 [1] of 2.76 nM. Further, in the series with H9 [2], the IC50 was over 153000 nM. Besides, the selectivity ratio in series [3] is over 51000.

Take `COc1cc2ccc(=O)oc2c2c1OC(C)(C)[C@H](OC(=O)C13CCC(C)(C(=O)O1)C3(C)C)[C@@H]2OC(=O)C12CCC(C)(C(=O)O1)C2(C)C` (stereo partly specified): in the series with H9 [1], the midpoint of the response, the EC50, lay at 24500 nM. Besides, the IC50 with H9 [2] is over 153000 nM. In addition, in series [3], the selectivity ratio was over 9.68.

`CC1(C)Oc2ccc3ccc(=O)oc3c2[C@@H](OC(=O)C23CCC(C)(C(=O)O2)C3(C)C)[C@H]1OC(=O)C12CCC(C)(C(=O)O1)C2(C)C` (stereo partly specified) came in with an EC50 in the series on H9 [1] of 0.256 nM. Besides, it took 35000 nM to reach half-maximal inhibition in the series on H9 [2] (IC50). In addition, the selectivity ratio in series [3] is 137000.

`Cc1cn([C@H]2C[C@H](N=[N+]=[N-])[C@@H](CO)O2)c(=O)[nH]c1=O` [ZIDOVUDINE] showed an EC50 in the series on H9 [1] of 45 nM.

Take `COc1cc2ccc3c(c2oc1=O)[C@@H](OC(=O)C12CCC(C)(C(=O)O1)C2(C)C)[C@@H](OC(=O)C12CCC(C)(C(=O)O1)C2(C)C)C(C)(C)O3` (stereo partly specified): the response in the series on H9 [1] was half-maximal at 6 nM (EC50). Moreover, in the series with H9 [2], the IC50 is over 153000 nM. Further, the selectivity ratio in series [3] was over 25500.

For `COc1cc2c(c3oc(=O)ccc13)[C@@H](OC(=O)C13CCC(C)(C(=O)O1)C3(C)C)[C@@H](OC(=O)C13CCC(C)(C(=O)O1)C3(C)C)C(C)(C)O2` (stereo partly specified), the midpoint of the response in the series with H9 [1], the EC50, lay at 0.138 nM. Moreover, in the series on H9 [2], the IC50 is over 153000 nM. Also, the selectivity ratio in series [3] was over 403000.

(Values after ChEMBL document CHEMBL1130573, “Anti-AIDS agents-XXVIII.1 Synthesis and Anti-HIV activity of methoxy substituted 3,4-Di-O-()-camphanoyl-(+)-cis-khellactone (DCK) analogues” (Bioorg Med Chem Lett, 1997).)
